Test results published in patent publication EP0565593B1, “REDUCING PESTICIDAL INTERACTIONS IN CROPS” (priority 1990, dated 1992).
“And” between values parts separate entries of the source, which are not always exact repeats. Equal values may be shown once. Read-outs that look alike come from different tables or passages of the source.

Columns and labels:
Giant foxtail (GIFT) [1] = test: whole plant or invertebrate; format: in vivo; details: in vivo
Velvetleaf (VELE) [2] = test: whole plant or invertebrate; format: in vivo, Abutilon theophrasti; details: in vivo
[3] = tested on: velvetleaf (Abutilon theophrasti); test: Greenhouse test, combination of Procedures II and III (Examples 1, 2; Tables 1, 2); format: in vivo; details: for Percent Injury VELE: 7 weeks
Velvetleaf (VELE) [4] = test: Multi-crop greenhouse test, soil-applied (Examples 65, 66; Tables 64, 65); format: in vivo, Abutilon theophrasti; design: inhibition: dose or concentration left out as unconfirmed; details: Abutilon theophrasti, Biocide No. 1 8.96 Kg/Ha alone
Procedure: (§1) Tests according to this invention in various crops indicate widespread application of the invention. In Examples 62-66 below are described tests with a variety of herbicides contacted with COUNTER® 15G in the presence and absence of MON-7400 (Antidote No. 12); MON-13900 (No. 1); MON-4660 (No. 16) and flurazole (No. 16). Those tests were conducted according to Procedures IV or V described above and illustrated further in other foregoing examples. Plants used in all tests were, for crops (as abbreviated in parentheses); cotton (COTT); soybean (SOBE); CORN, grain sorghum (GRSO); wheat (WHEA) and RICE, and the weeds giant foxtail (GIFT) and velvetleaf (VELE). The data in the tables below represent averages of two replications.
(§2) In this test the crops and weeds were planted 1.3 cm deep in 13.7 cm X 27.7 cm pans containing Dupo silt loam soil. The test safeners were applied in acetone solution and COUNTER 15G as dry granules to soil cover layers and incorporated by shaking in a bag. Treated cover layers were placed on seeded pans which were transferred to greenhouse benches and subirrigated. Herbicide was applied POE six (6) days after PPI initiation and observations of plant injury made ten (10) days later; results are shown in Table 61. The herbicide used in this example was BEACON (No. 8).
(§3) In another test in the several crops and weeds used in this test series, the herbicidal component was MON-12000 (No. 1); the other components were the same. the procedure used in this test was the same as that described in Example 62, modified to use a light overhead irrigation (about 0.32 cm/day) during days 4-7 of the test. Table 64 […]

Shattercane (SHCA) = format: in vivo
Velvetleaf (VELE) [5] = format: in vivo, Abutilon theophrasti
Corn [6] = details: in vivo
Corn [7] = test: Greenhouse test in sterile vs. unsterile soils (chemicals and procedures of Example 6); format: in vivo; details: Herbicide No. 1
Procedure: Other greenhouse tests were conducted involving the same chemicals and procedures used in Example 6, to determine any effects from microbial breakdown relative to interactions between the herbicide and insecticides in sterile vs. unsterile soils. […] This finding comports with reports in the trade that organophosphates are known to suffer microbial breakdown due to soil microbes.

cotton (COTT) = test: Multi-crop greenhouse test, biocide, herbicide and safener applied to soil covers (Examples 65, 66; Tables 64, 65); format: in vivo; design: inhibition: dose or concentration left out as unconfirmed; details: Gossypium hirsutum, soil, Biocide No. 1 8.96 Kg/Ha alone
Procedure: as §1, §2
In another test in the several crops and weeds used in this test series, the herbicidal component was MON-12000 (No. 1); the other components were the same. the procedure used in this test was the same as that described in Example 62, modified to use a light overhead irrigation (about 0.32 cm/day) during days 4-7 of the test.
In yet another test in this series, XRD-498 (Herbicide No. 21) was used as the herbicidal component in contact with COUNTER 15G in the presence of the above safeners. The various components of the system (biocide, herbicide and safener) were applied concurrently to soil covers of the seeded plants.

Corn [8] = tested on: Corn
Corn [9] = test: Multi-crop greenhouse test, soil-applied (Examples 65, 66; Tables 64, 65); format: in vivo; design: inhibition: dose or concentration left out as unconfirmed; details: Zea mays, Biocide No. 1 8.96 Kg/Ha alone
Procedure: as §1, §2, §3

RICE = test: as above; format: in vivo; design: inhibition: dose or concentration left out as unconfirmed; details: Oryza sativa, Biocide No. 1 8.96 Kg/Ha alone
Procedure: as §1, §2, §3

wheat (WHEA) = test: as above; format: in vivo; design: inhibition: dose or concentration left out as unconfirmed; details: Triticum aestivum, Biocide No. 1 8.96 Kg/Ha alone
Procedure: as §1, §2, §3

Giant foxtail (GIFT) [10] = test: as above; format: in vivo; design: inhibition: dose or concentration left out as unconfirmed; details: Setaria faberi, Biocide No. 1 8.96 Kg/Ha alone
Procedure: as §1, §2, §3

soybean (SOBE) = test: as above; format: in vivo; design: inhibition: dose or concentration left out as unconfirmed; details: Glycine max, Biocide No. 1 8.96 Kg/Ha alone
Procedure: as §1, §2, §3

grain sorghum (GRSO) = test: as above; format: in vivo; design: inhibition: dose or concentration left out as unconfirmed; details: Sorghum, Biocide No. 1 8.96 Kg/Ha alone
Procedure: as §1, §2, §3

Corn [11] = test: Greenhouse test, combination of Procedures II and III: insecticide in-furrow or in cover layer, herbicide and antidote incorporated in cover layer (Examples 1-3, 6; Tables 1-3, 6); format: in vivo; details: for Percent Injury Corn: 7 weeks
Corn [12] = test: Field trials, PPI, PRE and POE herbicide applications with terbufos (Example 7); format: in vivo; details: mean of five locations, soil-applied insecticide prior to planting
Text: This example summarizes the results of one series of field trials from a plurality of locations and soil types wherein test chemicals were applied in various modes including pre-plant incorporated (PPI), post emergence (POE) and preemergence (PRE) with and without a safener (antidote). Test Chemicals were Herbicide Nos 1, 2, 3 and 7-9; Insecticide No. 1 and Antidote No. 1.
In these trials Insecticide No. 1 (terbufos) was T-banded or furrow applied at labeled rates prior to planting corn. PPI herbicide treatments were applied prior to insecticide applications; PRE treatments were applied after the insecticide application either prior to or after seeding the corn. POE herbicide applications were made at 2 corn-growth stages, i.e., early post (EP) at the 2-3 leaf stage and late post (LP) at the 4-7 leaf stage. Plots were small plot with 3 replications in a randomized complete block design. In the PRE and PPI herbicide treatments, Antidote No. 1 was applied as a tankmix in both treatments. In the POE herbicide treatments, that antidote was applied as a tank mix with the herbicide at the EP and LP stages.

[13] = Ex. 2: Insecticide 1 0.23 Kg/305m alone, 3 weeks
[14] = Insecticide 1 0.23 kg/305m alone
[15] = Insecticide 1 (H2O) (crystals scattered in-furrow) alone
[16] = Ex. 12: Biocide No. 1 8.96 Kg/Ha PPI alone, 13 days after planting
[17] = no antidote, […], observed 10 days after herbicide application
[18] = Ex. 6: Insecticide 1 0.23 Kg/305m alone, 3 weeks
[19] = Herbicide No. 7 0.28 Kg/Ha POE alone, 13 days after planting
[20] = Herbicide No. 7 0.28 POE + Biocide No. 1 8.96 Kg/Ha PPI, 13 days after planting
[21] = Herbicide No. 7 alone, POE 5 DAP, observed 13 DAP
[22] = Table 14: no antidote, Herbicide No. 7 0.84 Kg/Ha POE and/or Biocide No. 2 8.96 Kg/Ha PPI, per label, 13 days after planting
[23] = Table 50, Herbicide No. 7 0.56 Kg/Ha POE, where applied Biocide No. 8 8.96 kg/Ha and antidote 4.48 Kg/Ha PPI, observed 9 days after POE
[24] = no antidote, […], 13 days after planting

CCOP(=S)(OCC)SCSC(C)(C)C [Biocide No. 1, S-[[(1,1-dimethyl-ethyl)thio]-methyl]O,O-diethylphosphorodithioate, reference compound]
% Inhibition GIFT (Giant foxtail (GIFT) [1]): 10% and 20% | % Inhibition VELE (Velvetleaf (VELE) [2]): 0% | % Injury VELE [3, 13]: 0% | Percent Injury VELE [3, 14]: 0% | Percent Injury VELE [3, 15]: 0% | inhibition (Velvetleaf (VELE) [4]; Table 64): 0% | inhibition (Velvetleaf (VELE) [4]; Table 65): 0% | % Inhibition SHCA (Shattercane (SHCA); [16]): 25% | % Inhibition SHCA (Shattercane (SHCA); [17]): 20% | % Inhibition VELE (Velvetleaf (VELE) [5]; [17]): 15% | % Inhibition Corn (Corn [6]): 5% and 0% | interactions with herbicide in unsterile vs. sterile soil (Corn [7]): did not appear to be reduced | inhibition (cotton (COTT); Table 64): 0% | inhibition (cotton (COTT); Table 65): 0% | % Inhibition Corn (Corn [8]; [16]): 5% | effect on corn before application of the herbicide (Corn [8]; in vivo): slight early stunting and leaf malformation | inhibition (Corn [9]; Table 64): 0% | inhibition (Corn [9]; Table 65): 0% | inhibition (RICE; Table 64): 10% | inhibition (RICE; Table 65): 0% | inhibition (wheat (WHEA); Table 64): 0% | inhibition (wheat (WHEA); Table 65): 0% | inhibition (Giant foxtail (GIFT) [10]; Table 64): 30% | inhibition (Giant foxtail (GIFT) [10]; Table 65): 30% | inhibition (soybean (SOBE); Table 64): 0% | inhibition (soybean (SOBE); Table 65): 0% | inhibition (grain sorghum (GRSO); Table 64): 0% | inhibition (grain sorghum (GRSO); Table 65): 0% | % Injury Corn (Corn [11]; [13]): 3% | % Corn Injury PN 3320 (Corn [11]; [18]): 0% | % Corn Injury PN 3377 (Corn [11]; [18]): 0% | Percent Injury Corn (Corn [11]; [14]): 0% | Percent Injury Corn (Corn [11]; [15]): 0%

COc1cc(OC)nc(NC(=O)NS(=O)(=O)c2ncccc2C(=O)N(C)C)n1 [Herbicide No. 7, reference compound]
% Inhibition SHCA (Shattercane (SHCA); [19]): 70% | % Inhibition SHCA (Shattercane (SHCA); [20]): 75% | % Inhibition SHCA (Shattercane (SHCA); [21]): 75% | % Inhibition SHCA (Shattercane (SHCA); [22]): 75% | % Inhibition SHCA (Shattercane (SHCA); [23]): 75% | % Inhibition SHCA (Shattercane (SHCA); in vivo): 75% | % Inhibition SHCA (Shattercane (SHCA); [24]): 75% | % Inhibition VELE (Velvetleaf (VELE) [5]; [19]): 60% | % Inhibition VELE (Velvetleaf (VELE) [5]; [20]): 65% | % Inhibition VELE (Velvetleaf (VELE) [5]; [21]): 70% | % Inhibition VELE (Velvetleaf (VELE) [5]; [22]): 65% | % Inhibition VELE (Velvetleaf (VELE) [5]; [23]): 80% | % Inhibition VELE (Velvetleaf (VELE) [5]; in vivo): 60% and 75% | % Inhibition VELE (Velvetleaf (VELE) [5]; [24]): 60% | safety to corn (Corn [8]; ACCENT alone, no insecticide, 0.28 to 0.84 kg/ha): completely safe | % Inhibition Corn (Corn [8]; [19]): 0% | % Inhibition Corn (Corn [8]; [20]): 60% | % Inhibition Corn (Corn [8]; [21]): 0% | % Inhibition Corn (Corn [8]; [22]): 0% | % Inhibition Corn (Corn [8]; [23]): 10% | % Inhibition Corn (Corn [8]; [24]): 0% | interaction with Insecticide No. 1 after POE herbicide (Corn [12]): Significant increased growth reduction
